The results in this text go back to PubChem BioAssay AID342 (DTP/NCI, 2004).

“And” between values parts separate entries of the source, which are not always exact repeats. Equal entries are not always repeated.

This assay has as its system Swiss mice, Sarcoma 180 sc, mean tumor weight T/C. The assay can be described thus: NCI In Vivo Anticancer Drug Screen. Data for tumor model Sarcoma 180 (subcutaneous) in Swiss mice. Particulars: endpoint: mean tumor weight, higher = larger tumour. Summed up:
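Mice bearing transplanted tumors were treated with compound, and survival or tumor size was measured. Values are expressed as the treated-group measurement (T) divided by the vehicle-treated control measurement (C).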

Setting [1] is: dose: 3.0 mg/kg/injection, schedule: Q01DX007 (ip), vehicle: saline.
Setting [2] is: dose: 22.5 mg/kg/injection, schedule: Q#A X014 (ip), vehicle: methylcellulose (MC).
[3] abbreviates: dose: 33.5 mg/kg/injection, schedule: Q#A X014 (ip), vehicle: methylcellulose (MC).
Where [4] appears, read: dose: 50.0 mg/kg/injection, schedule: Q#A X014 (ip), vehicle: methylcellulose (MC).

`Nc1ncnc2c1ncn2C1OC(COCc2ccccc2)C(OCc2ccccc2)C1OCc1ccccc1` (configuration not stated): the T/C (dose: 10.0 mg/kg/injection, schedule: Q01DX007 (ip), vehicle: saline) is 88 % of control; the T/C (dose: 20.0 mg/kg/injection, schedule: Q01DX007 (ip), vehicle: saline) was 86 % of control and 107 % of control; the T/C (dose: 40.0 mg/kg/injection, schedule: Q01DX007 (ip), vehicle: saline) was 64 % of control and 87 % of control; the T/C (dose: 160.0 mg/kg/injection, schedule: Q01DX007 (ip), vehicle: saline) was 99 % of control.

As to `O=C(O)C(=O)O.[U]`, the T/C is, setting by setting: (dose: 1.5 mg/kg/injection, schedule: Q01DX007 (ip), vehicle: saline) 85 % of control; under setting [1], 79 % of control; (dose: 6.0 mg/kg/injection, schedule: Q01DX007 (ip), vehicle: saline) 82 % of control; (dose: 18.5 mg/kg/injection, schedule: Q01DX007 (ip), vehicle: saline) 32 % of control; (dose: 27.8 mg/kg/injection, schedule: Q01DX007 (ip), vehicle: saline) 33 % of control and 42 % of control; (dose: 41.7 mg/kg/injection, schedule: Q01DX007 (ip), vehicle: saline) 41 % of control. Also, the T/C reads like this: (dose: 62.5 mg/kg/injection, schedule: Q01DX007 (ip), vehicle: saline) 35 % of control; (dose: 93.8 mg/kg/injection, schedule: Q01DX007 (ip), vehicle: saline) 39 % of control.

Turning to `CCCCn1cnc2c(Sc3c([N+](=O)[O-])ncn3C)nc(N)nc21`, the T/C is 95 % of control (dose: 2.75 mg/kg/injection, schedule: Q#A X014 (ip), vehicle: methylcellulose (MC)); 53 % of control (dose: 4.15 mg/kg/injection, schedule: Q#A X014 (ip), vehicle: methylcellulose (MC)); 66 % of control (dose: 6.25 mg/kg/injection, schedule: Q#A X014 (ip), vehicle: methylcellulose (MC)); 51 % of control (dose: 9.37 mg/kg/injection, schedule: Q#A X014 (ip), vehicle: methylcellulose (MC)).

Take `CN(C)NCCC#N`: the T/C was 91 % of control (dose: 15.0 mg/kg/injection, schedule: Q#A X014 (ip), vehicle: methylcellulose (MC)); 52 % of control under setting [2]; 49 % of control under setting [3]; 39 % of control under setting [4].

Consider `Nc1c(Br)cc2c(c1Br)Cc1cc([N+](=O)[O-])ccc1-2`, for which the T/C is 77 % of control (dose: 74.0 mg/kg/injection, schedule: Q01DX007 (ip), vehicle: other); 27 % of control (dose: 111.0 mg/kg/injection, schedule: Q#A X014 (ip), vehicle: saline); 92 % of control (dose: 148.0 mg/kg/injection, schedule: Q01DX007 (ip), vehicle: carboxymethylcellulose (CMC)); 96 % of control (dose: 148.0 mg/kg/injection, schedule: Q01DX007 (ip), vehicle: other); 56 % of control (dose: 148.0 mg/kg/injection, schedule: Q01DX007 (ip), vehicle: saline); 21 % of control (dose: 166.5 mg/kg/injection, schedule: Q#A X014 (ip), vehicle: saline). For the same molecule, the T/C was 42 % of control (dose: 222.0 mg/kg/injection, schedule: Q01DX007 (ip), vehicle: other); 64 % of control (dose: 222.0 mg/kg/injection, schedule: Q01DX007 (ip), vehicle: saline); 21 % of control (dose: 250.0 mg/kg/injection, schedule: Q#A X014 (ip), vehicle: saline); 40 % of control (dose: 333.0 mg/kg/injection, schedule: Q01DX007 (ip), vehicle: other); 67 % of control (dose: 333.0 mg/kg/injection, schedule: Q01DX007 (ip), vehicle: saline); 54 % of control (dose: 500.0 mg/kg/injection, schedule: Q01DX007 (ip), vehicle: saline).

In the case of `O=C(NP(=O)(N1CC1)N1CC1)OCc1ccccc1`, the T/C is 82 % of control (dose: 1.5 mg/kg/injection, schedule: Q#A X014 (ip), vehicle: saline); 81 % of control (dose: 3.0 mg/kg/injection, schedule: Q#A X014 (ip), vehicle: saline); 36 % of control (dose: 6.0 mg/kg/injection, schedule: Q#A X014 (ip), vehicle: saline); 1 % of control (dose: 12.0 mg/kg/injection, schedule: Q#A X014 (ip), vehicle: saline).

With `Clc1ccc2c(Cl)ncnc2c1`, the T/C was 58 % of control and 64 % of control (dose: 22.0 mg/kg/injection, schedule: Q#A X014 (ip), vehicle: methylcellulose (MC)); 80 % of control under setting [2]; 57 % of control and 65 % of control (dose: 33.0 mg/kg/injection, schedule: Q#A X014 (ip), vehicle: methylcellulose (MC)); 51 % of control under setting [3]; 42 % of control and 48 % of control and 64 % of control under setting [4]; 21 % of control (dose: 75.0 mg/kg/injection, schedule: Q#A X014 (ip), vehicle: methylcellulose (MC)).

As for `[Cu+2].[O-]c1ccc(Br)c2cccnc12.[O-]c1ccc(Br)c2cccnc12`, the T/C runs as follows: (dose: 4.2 mg/kg/injection, schedule: Q01DX007 (ip), vehicle: carboxymethylcellulose (CMC)) 71 % of control; (dose: 6.2 mg/kg/injection, schedule: Q01DX007 (ip), vehicle: carboxymethylcellulose (CMC)) 66 % of control; (dose: 14.0 mg/kg/injection, schedule: Q01DX007 (ip), vehicle: other) 63 % of control; (dose: 21.0 mg/kg/injection, schedule: Q01DX007 (ip), vehicle: other) 39 % of control; (dose: 32.0 mg/kg/injection, schedule: Q01DX007 (ip), vehicle: other) 26 % of control.

With `CC1(C)N=C(N)N=C(N)N1c1cccc(Cl)c1`, the T/C is 83 % of control (dose: 3.97 mg/kg/injection, schedule: Q01DX007 (ip), vehicle: carboxymethylcellulose (CMC)); 85 % of control (dose: 6.95 mg/kg/injection, schedule: Q01DX007 (ip), vehicle: carboxymethylcellulose (CMC)); 68 % of control (dose: 13.9 mg/kg/injection, schedule: Q01DX007 (ip), vehicle: carboxymethylcellulose (CMC)); 74 % of control (dose: 27.8 mg/kg/injection, schedule: Q01DX007 (ip), vehicle: carboxymethylcellulose (CMC)).

`O=C(NCCCCCCCCCCNC(=O)N1CC1)N1CC1`: the T/C by setting is: (dose: 0.9 mg/kg/injection, schedule: Q01DX007 (ip), vehicle: carboxymethylcellulose (CMC)) 66 % of control and 83 % of control; (dose: 0.9 mg/kg/injection, schedule: Q01DX007 (ip), vehicle: saline) 70 % of control; (dose: 1.3 mg/kg/injection, schedule: Q01DX007 (ip), vehicle: carboxymethylcellulose (CMC)) 64 % of control and 65 % of control; (dose: 1.3 mg/kg/injection, schedule: Q01DX007 (ip), vehicle: saline) 67 % of control; (dose: 2.0 mg/kg/injection, schedule: Q01DX007 (ip), vehicle: carboxymethylcellulose (CMC)) 35 % of control and 43 % of control; (dose: 2.0 mg/kg/injection, schedule: Q01DX007 (ip), vehicle: saline) 48 % of control. For the same molecule, the T/C by setting is: (dose: 3.0 mg/kg/injection, schedule: Q01DX007 (ip), vehicle: carboxymethylcellulose (CMC)) 10 % of control and 21 % of control; under setting [1], 34 % of control; (dose: 4.0 mg/kg/injection, schedule: Q01DX007 (ip), vehicle: carboxymethylcellulose (CMC)) 38 % of control.

With `CC(=O)OCC1OC(n2cnc3c(=S)nc(N)[nH]c32)C(OC(C)=O)C1OC(C)=O` (configuration not stated), the T/C runs as follows: (dose: 3.0 mg/kg/injection, schedule: Q01DX007 (ip), vehicle: other) 12 % of control; under setting [1], 64 % of control; (dose: 4.4 mg/kg/injection, schedule: Q01DX007 (ip), vehicle: other) 6 % of control; (dose: 6.6 mg/kg/injection, schedule: Q01DX007 (ip), vehicle: carboxymethylcellulose (CMC)) 43 % of control; (dose: 6.6 mg/kg/injection, schedule: Q01DX007 (ip), vehicle: other) 18 % of control and 29 % of control; (dose: 10.0 mg/kg/injection, schedule: Q01DX007 (ip), vehicle: carboxymethylcellulose (CMC)) 28 % of control. Further, the T/C was 51 % of control (dose: 10.0 mg/kg/injection, schedule: Q01DX007 (ip), vehicle: other); 9 % of control (dose: 15.0 mg/kg/injection, schedule: Q01DX007 (ip), vehicle: carboxymethylcellulose (CMC)); 6 % of control and 24 % of control (dose: 15.0 mg/kg/injection, schedule: Q01DX007 (ip), vehicle: other); 9 % of control (dose: 22.0 mg/kg/injection, schedule: Q01DX007 (ip), vehicle: carboxymethylcellulose (CMC)); 3 % of control and 10 % of control (dose: 22.0 mg/kg/injection, schedule: Q01DX007 (ip), vehicle: other); 11 % of control (dose: 33.0 mg/kg/injection, schedule: Q01DX007 (ip), vehicle: other).
